In patent US20250009852A1, “DEPLETING EGFR AND HER2 OVERCOMES RESISTANCE TO EGFR INHIBITORS IN COLORECTAL CANCER” (Health Research, Inc., priority 2021, published 2025):
Each block holds one compound with its values, some of them ahead of it.

Key:
EGFR = assay: Immunofluorescence staining and confocal microscopy of EGFR trafficking in SW48 cells; type: cell-based, human; conditions: chloroquine 25 μM plus PEPD^G278D 25 nM
Experimental: SW48 cells were grown in chamber slides (4×10^4 cells/well) overnight with or without subsequent treatment with PEPD^G278D (25 nM) and/or chloroquine (25 μM) for up to 6 h. The cells were then washed with ice-cold PBS, fixed with 4% paraformaldehyde for 20 min at room temperature (RT), washed again with ice-cold PBS and blocked with 1% BSA in PBS for 1 h at RT. The cells were then incubated with an EGFR antibody, a His tag antibody for detection of PEPD^G278D, and/or a LAMP1 antibody overnight at 4° C., washed with PBS, incubated with a secondary antibody conjugated to Alexa-Fluor 488 or Alexa-Fluor 647 antibody for 1 h at RT and washed again with PBS. The cells were then examined with a BZ-X700 fluorescence microscope (Keyence) with a S PL FL ELWD ADM 40xC objective. Merged images from Z-stack were organized using the ImageJ software (NIH Image).

[1] = test system: HER3, IGF1R, MET, SRC, AKT, ERK, MEK, NRAS, HRAS, caspase 3; assay: Western blotting of tumor homogenates: other signaling proteins; type: in vivo, mouse; conditions: HCT116 and HT29 tumors; single agent
Experimental: (§1) To prepare whole cell lysates, cells were washed with PBS twice, mixed with 1× cell lysis buffer from Cell Signaling Technology supplemented with 2 mM PMSF and a protease inhibitor cocktail from Roche Applied Science, placed on ice for 10 min, sonicated at 0-4° C. to enhance cell lysis using a Branson Model 450 sonifier, and finally centrifuged at 13,000 g for 10 min at 4° C., and the supernatant fraction is collected as whole cell lysate. Tumor and samples were mixed with RIPA buffer (25 mM Tris-HCl, PH7.6, 150 mM NaCl, 1% Nonidet P-40, 1% sodium deoxycholate, and 0.1% SDS), which was supplemented with 2 mM PMSF, the protease inhibitor cocktail mentioned above, phosphatase inhibitor cocktail 2 and phosphatase inhibitor cocktail 3 from Sigma-Aldrich at 14.3 μl buffer per mg tissue, and homogenized in a Dounce homogenizer. The homogenates were cleared by centrifugation at 13,000 g for 15 min at 4° C.
Protein concentrations in all samples were measured using the BCA Assay Kit. For Western blotting, each sample was mixed with 4× loading dye, heated for 5 min at 95° C., and resolved by SDS-PAGE (8-12.5%). Proteins were transferred to polyvinylidene fluoride membrane, probed with specific antibodies, and detected using either Luminata Classico (Millipore) or Luminata Cresendo (Millipore). […] The beads were washed three times with IP buffer, suspended in 2× SDS loading buffer, boiled for 5 min, and analyzed by Western blotting.
SCID mice (C.B.17 SCID) were bred by the Laboratory Animal Shared Resource at Roswell Park Comprehensive Cancer Center. […] Subcutaneous tumor volume was measured using length ×width^2÷2. Tumor volume was measured three times each week. Orthotopic tumor growth was monitored by bioluminescence weekly. Mice were given D-luciferin (150 mg/kg) by ip and anesthetized with isoflurane, and tumor burden was measured by bioluminescence using the IVIS Spectrum In Vivo Imaging System (PerkinElmer). Drug treatment was started when significant tumor growth was detected. […] The mice were closely monitored for sign of adverse effects and weighed three times each week.

HCT116 tumors = assay: Subcutaneous HCT116 tumors in SCID mice; type: in vivo, mouse; conditions: sc HCT116 tumors; 5-FU 35 mg/kg ip every 3-4 days, alone or with EP and PEPD^G278D 4 mg/kg, without aderbasib (FIG. 14)
Experimental: SCID mice (C.B.17 SCID) were bred by the Laboratory Animal Shared Resource at Roswell Park Comprehensive Cancer Center. Male mice at 7-8 weeks of age were used. All mouse experiments were approved by the Institutional Animal Care and Use Committee at Roswell Park Comprehensive Cancer Center under protocol 1022M. We established subcutaneous tumors by inoculating 1×10^6 HCT116 cells, 4×10^6 HT29 cells, or 2×10^6 SW48 cells to the flank of each mouse in 100 μl of serum free medium. Colon patient-derived xenograft (PDX) 14650 was established from a liver metastatic lesion in a patient treated at Roswell Park Comprehensive Cancer Center. Tumor fragments (˜20 mm^3) from donor mice were implanted into the flank of each mouse subcutaneously using a trocar. Orthotopic colon tumors in mice were established by inoculating HCT116 cells stably transfected with firefly luciferase (2×10^6 cells in 50 μl of 50% serum-free medium and 50% Matrigel) to the caecum wall of each mouse. Mice in each tumor model were randomized cage-wise into treatment groups using Research Randomizer (www.randomizer.org). Subcutaneous tumor volume was measured using length ×width^2÷2. Tumor volume was measured three times each week. Orthotopic tumor growth was monitored by bioluminescence weekly. Mice were given D-luciferin (150 mg/kg) by ip and anesthetized with isoflurane, and tumor burden was measured by bioluminescence using the IVIS Spectrum In Vivo Imaging System (PerkinElmer). Drug treatment was started when significant tumor growth was detected. EP (0.5 mg/kg) was administered to mice ip once daily. […] Aderbasib (60 mg/kg) was administered to mice by gavage once daily. 5-FU (35 mg/kg) was administered to mice ip twice weekly (Monday and Thursday). EP, PEPD^G278D and 5-FU were administered to mice in PBS. Aderbasib was first dissolved in DMSO and then diluted by PBS (final 5% DMSO by volume). Each agent was administered to mice at 0.1 ml volume per 20 g body weight. When a mouse was given multiple agents on the same day, the agents were dosed at approximately 30 min intervals. The mice were closely monitored for sign of adverse effects and weighed three times each week. Mice were sacrificed 24-48 hours after the last treatment, at which point the tumors were promptly removed, snap frozen and stored at −80° C. for later analysis. Some tumors were fixed in 10% buffered formalin, paraffin embedded, cut at 4 μm, and stained with hematoxylin and eosin (H & E) for histological analysis.

HT29 tumors = assay: Subcutaneous HT29 tumors in SCID mice; type: in vivo, mouse; conditions: sc HT29 tumors; 5-FU 35 mg/kg ip every 4 days (FIG. 14)
Experimental: SCID mice (C.B.17 SCID) were bred by the Laboratory Animal Shared Resource at Roswell Park Comprehensive Cancer Center. Male mice at 7-8 weeks of age were used. All mouse experiments were approved by the Institutional Animal Care and Use Committee at Roswell Park Comprehensive Cancer Center under protocol 1022M. We established subcutaneous tumors by inoculating 1×10^6 HCT116 cells, 4×10^6 HT29 cells, or 2×10^6 SW48 cells to the flank of each mouse in 100 μl of serum free medium. Colon patient-derived xenograft (PDX) 14650 was established from a liver metastatic lesion in a patient treated at Roswell Park Comprehensive Cancer Center. Tumor fragments (˜20 mm^3) from donor mice were implanted into the flank of each mouse subcutaneously using a trocar. Orthotopic colon tumors in mice were established by inoculating HCT116 cells stably transfected with firefly luciferase (2×10^6 cells in 50 μl of 50% serum-free medium and 50% Matrigel) to the caecum wall of each mouse. Mice in each tumor model were randomized cage-wise into treatment groups using Research Randomizer (www.randomizer.org). Subcutaneous tumor volume was measured using length ×width^2÷2. Tumor volume was measured three times each week. Orthotopic tumor growth was monitored by bioluminescence weekly. Mice were given D-luciferin (150 mg/kg) by ip and anesthetized with isoflurane, and tumor burden was measured by bioluminescence using the IVIS Spectrum In Vivo Imaging System (PerkinElmer). Drug treatment was started when significant tumor growth was detected. EP (0.5 mg/kg) was administered to mice ip once daily. PEPD^G278D (4 mg/kg) was administered to mice ip thrice weekly (Monday, Wednesday, Friday). Aderbasib (60 mg/kg) was administered to mice by gavage once daily. 5-FU (35 mg/kg) was administered to mice ip twice weekly (Monday and Thursday). EP, PEPD^G278D and 5-FU were administered to mice in PBS. Aderbasib was first dissolved in DMSO and then diluted by PBS (final 5% DMSO by volume). […] The mice were closely monitored for sign of adverse effects and weighed three times each week. […]

[2] = Monitoring of mice for signs of adverse effects; type: in vivo; conditions: mouse, in vivo, ip, 35 mg/kg
Experimental: SCID mice (C.B.17 SCID) were bred by the Laboratory Animal Shared Resource at Roswell Park Comprehensive Cancer Center. Male mice at 7-8 weeks of age were used. All mouse experiments were approved by the Institutional Animal Care and Use Committee at Roswell Park Comprehensive Cancer Center under protocol 1022M. We established subcutaneous tumors by inoculating 1×10^6 HCT116 cells, 4×10^6 HT29 cells, or 2×10^6 SW48 cells to the flank of each mouse in 100 μl of serum free medium. Colon patient-derived xenograft (PDX) 14650 was established from a liver metastatic lesion in a patient treated at Roswell Park Comprehensive Cancer Center. Tumor fragments (˜20 mm^3) from donor mice were implanted into the flank of each mouse subcutaneously using a trocar. […] Subcutaneous tumor volume was measured using length ×width^2÷2. Tumor volume was measured three times each week. Orthotopic tumor growth was monitored by bioluminescence weekly. Mice were given D-luciferin (150 mg/kg) by ip and anesthetized with isoflurane, and tumor burden was measured by bioluminescence using the IVIS Spectrum In Vivo Imaging System (PerkinElmer). Drug treatment was started when significant tumor growth was detected. […] The mice were closely monitored for sign of adverse effects and weighed three times each week. […]

EGFR and HER2 [3] = molecular target: T1, EGFR and HER2 (Homo sapiens, UniProt P00533); assay: Western blotting of whole cell lysates: EGFR and HER2; type: cell-based; conditions: HB-EGF 20 ng/ml in medium without serum
T1 construct: Both EGFR and HER2 were expressed in HCT116, HT29, and SW48 cells; endogenous in cells; host or cells: HCT116, HT29, SW48 (SW620 lacks both)
Experimental: as §1
(§2) Protein concentrations in all samples were measured using the BCA Assay Kit. For Western blotting, each sample was mixed with 4× loading dye, heated for 5 min at 95° C., and resolved by SDS-PAGE (8-12.5%). Proteins were transferred to polyvinylidene fluoride membrane, probed with specific antibodies, and detected using either Luminata Classico (Millipore) or Luminata Cresendo (Millipore). For IP, cell lysates (0.5 mg protein/sample) were incubated with a desired antibody overnight at 4° C., followed by incubation of 500 μl sample with 30 μl G-Sepharose beads (2 mg/ml) for 1 h at RT. The beads were washed three times with IP buffer, suspended in 2× SDS loading buffer, boiled for 5 min, and analyzed by Western blotting.

EGFR and HER2 [4] = assay: as above; type: cell-based, human; conditions: HB-EGF 20 ng/ml alone, without PEPD^G278D and FBS
Experimental: as §1, §2

HCT116 cells = assay: MTT cell proliferation assay; type: cell-based, human; conditions: 24, 48 or 72 h, PEPD^G278D 5-250 nM, cetuximab 2.75-275 nM, panitumumab 2.77-277 nM
Experimental: (§3) Cells were grown in 96-well plates. […] The cells were then washed with PBS and mixed with dimethyl sulfoxide (150 μl per well), and cell density was determined by measuring the reduction of MTT to formazan spectroscopically at 570 nm using a Synergy 2 Multi-Mode Microplate Reader (BioTek). In experiments involving siRNA transfection, 2×10^3 HCT116 cells or 6×10^3 HT29 cells were seeded to each well of 96-well plates overnight and then transfected 25 nM siRNA (scramble siRNA, EGFR siRNA or HER2 siRNA) as described above, followed by MTT assay.

HT29 cells = assay: MTT cell proliferation assay; type: cell-based, human; conditions: 24, 48 or 72 h, PEPD^G278D 5-250 nM, cetuximab 2.75-275 nM, panitumumab 2.77-277 nM
Experimental: as §3

SW48 cells = assay: MTT cell proliferation assay; type: cell-based, human; conditions: 24, 48 or 72 h, PEPD^G278D 5-250 nM, cetuximab 2.75-275 nM, panitumumab 2.77-277 nM
Experimental: as §3

[5] = test system: HER3, MET, IGF1R, SRC, AKT, ERK, MEK; assay: Western blotting of whole cell lysates: other RTKs and downstream signaling proteins; type: cell-based, human; conditions: HCT116, HT29 and SW620 cells; 275-277 nM, 48 h
Experimental: as §1, §2

Compound: CCN(CC)CCCC(C)Nc1ccnc2cc(Cl)ccc12 (centres unmarked) [chloroquine, reference compound]
EGFR degradation induced by PEPD^G278D (EGFR): blocked EGFR degradation

Compound: enoxaparin [EP]
expression or phosphorylation of the proteins analyzed in tumors [1]: neither EP nor aderbasib had any effect

Compound: O=c1[nH]cc(F)c(=O)[nH]1 [5-FU, fluorouracil]
tumor growth (HCT116 tumors): ineffective
tumor growth (HT29 tumors): ineffective
toxicity in a dose-finding experiment [2]: not toxic

effect on EGFR depletion induced by PEPD^G278D (EGFR and HER2 [3]): mimicked the effect of serum
Compound: HB-EGF: recombinant human HB-EGF, a high affinity EGFR ligand [reference compound]
expression of EGFR or HER2 (EGFR and HER2 [4]): did not modulate the expression

Compound: panitumumab [reference compound]
cell growth measured by MTT assay (HCT116 cells): neither agent is active
cell growth measured by MTT assay (HT29 cells): neither agent is active
cell growth measured by MTT assay (SW48 cells): inhibited the growth of SW48 cells in a time- and concentration-dependent manner
effect on MET and ERK [5]: neither cetuximab nor panitumumab had any effect
